# Measurements as given in US20080194611A1, “Modulation of Cell Barrier Dysfunction” (priority 2005, published 2008).
# Legend:
# [1] = test system: PA-I lectin/adhesin expression in P. aeruginosa 27853/PLL-EGFP
# [2] = test system: P. aeruginosa whole cells and membrane fractions; assay: ELISA / immunofluorescence binding of cytokines to P. aeruginosa cells and membrane fractions; set-up: species or system Pseudomonas aeruginosa; details: for binding to P. aeruginosa membrane fractions: PAO1 membranes, ELISA
# Method: IFN-γ direct binding to a protein on the surface of P. aeruginosa, in the course of virulence activation, was also investigated. ELISA binding assays were performed by first coating microtiter plates with P. aeruginosa (strain PAO1), then adding recombinant human IFN-γ (rH IFN-γ), followed by biotin-labeled anti-IFN-γ antibody. […] In order to localize the binding site of IFN-γ to P. aeruginosa (PAO1), equal protein concentrations of membrane and cytosol fractions of P. aeruginosa were prepared and coated onto ELISA microtiter plates.
# [3] = test system: PA-I lectin/adhesin expression in P. aeruginosa PA27853 and PAO1
# [4] = in vivo; cited from earlier work
# [5] = test system: S1P3 receptor; assay: Tyrosine phosphorylation (transactivation) of the S1P3 receptor; assay type: cell-based, Human; details: pre-treatment
# [6] = test system: Human pulmonary microvascular endothelial cell; assay type: cell-based; details: for effect of agonist alone on endothelial cell barrier function (TER): HPMVEC
# [7] = cited from earlier work
# [8] = test system: pyocyanin (PCN) production in P. aeruginosa; assay type: cell-based, Pseudomonas aeruginosa
# [9] = cited from earlier work; remark: listed apart in the source
# [10] = test system: P. aeruginosa; assay type: cell-based, Pseudomonas aeruginosa
# [11] = target: T1, outer membrane protein OprF (Pseudomonas aeruginosa, UniProt P13794); assay: Binding of IFN-γ to purified OprF; details: dose-dependent
# T1 sequence (P13794 25-350): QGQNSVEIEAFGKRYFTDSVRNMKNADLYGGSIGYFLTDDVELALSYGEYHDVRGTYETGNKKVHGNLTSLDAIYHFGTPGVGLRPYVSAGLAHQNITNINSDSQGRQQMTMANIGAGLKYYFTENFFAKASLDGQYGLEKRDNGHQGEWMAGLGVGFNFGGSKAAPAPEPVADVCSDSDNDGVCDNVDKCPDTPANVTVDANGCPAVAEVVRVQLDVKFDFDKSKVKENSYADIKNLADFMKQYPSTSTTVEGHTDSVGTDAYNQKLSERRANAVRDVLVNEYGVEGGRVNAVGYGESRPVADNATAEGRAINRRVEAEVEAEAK
# [12] = test system: quorum sensing signaling system of P. aeruginosa PAO1; assay: Quorum sensing activation in PAO1 (rhlI Northern blot, C4-HSL in supernatants); assay type: cell-based, Pseudomonas aeruginosa
# [13] = test system: Caco-2 cell monolayers; assay: Barrier dysregulation of Caco-2 monolayers by PA27853 in the presence of IFN-γ; assay type: cell-based, Human; details: after five hours of incubation
# Method: In addition, strains were exposed to apical media from Caco-2 cells basolaterally exposed to single and combinations of the various epithelial-derived cytokines. […] Media from Caco-2 cells exposed to various combinations of these cytokines had no effect on PA-I expression. […] Using both ELISA, immunofluorescence microscopy, and flow cytometry, the binding characteristics of IFNγ were determined for both whole bacteria and membrane fractions of P. aeruginosa. […] These effects were also observed with strain PAO1. […] It has been difficult to immunoprecipitate a significant quantity of this protein from PA27853, but it has been determined that this protein can also be immunoprecipitated from E. coli. Next, IFN-γ binding specificity, to whole bacterial cells, was determined, using reiterative binding studies in the presence of various gram-negative bacterial strains, including P. aeruginosa. […] Finally, in order to determine if PA-I was functionally expressed in […] in the presence IFN-γ, PA27853 was inoculated onto Caco-2 cell monolayers in the presence of IFN-γ and the effect on barrier dysregulating dynamics of PA27853 against this cell line were assessed to determine if IFN-γ shifted the dynamics. IFN-γ enhanced the barrier dysregulating effect of PA27853 against the intestinal epithelium after five hours of incubation by about 20%. […]
# [14] = test system: P. aeruginosa biofilm; assay type: cell-based, Pseudomonas aeruginosa
# [15] = test system: MDCK cells; assay type: cell-based
compound,measurement,setting,value
Nc1ncnc2c1ncn2[C@@H]1O[C@H](COP(=O)(O)O)[C@@H](O)[C@H]1O [AMP],PA-I expression,[1],no evident inducing effect
Nc1ncnc2c1ncn2[C@@H]1O[C@H](COP(=O)(O)OP(=O)(O)O)[C@@H](O)[C@H]1O [ADP],PA-I expression,[1],no evident inducing effect
IL-10: human cytokine,binding to P. aeruginosa membrane fractions,[2],No binding was observed
Nc1ncnc2c1ncn2[C@@H]1O[C@H](CO)[C@@H](O)[C@H]1O [adenosine],PA-I expression,[1],increased
same,PA-I promoter activity (fluorescence),[1],enhanced fluorescence
same,exposure time before PA-I promoter activity was observed,[1],6 h
same,"PA-I expression, compound alone in media",[3],none of the other compounds alone had any effect
C=CCN1CC[C@]23c4c5ccc(O)c4O[C@H]2C(=O)CC[C@@]3(O)[C@H]1C5 [naloxone],effect on morphine-induced PA-I lectin/adhesin expression,[1],significantly attenuated
same,crossing of the blood-brain barrier,[4],crosses the blood-brain barrier easily
same,effect on morphine- and DAMGO-induced S1P3 receptor transactivation,[5],blocked the effects of morphine and DAMGO
same,effect on MS- and DAMGO-induced endothelial cell barrier disruption,[6],blocked
same,barrier protection with thrombin and LPS challenge,[6]; 0.1 μM,did not display the same endothelial cell barrier-protective effects as MNTX
same,lipid solubility / polarity,[7],fairly lipid-soluble
TGF-β,binding to P. aeruginosa membrane fractions,[2],No binding was observed
"CC(=O)N[C@H]1C(O)O[C@H](CO)[C@H](O)[C@@H]1O (stereo partly drawn) [GalNac, N-acetylgalactoside]",PA-I mRNA increase on dense adherence to Caco-2 cells,[3]; Caco-2,nearly completely abolished
same,PA-I mRNA induced by Caco-2 cell membrane fractions,[3]; Caco-2,attenuated
"COC(=O)c1ccccc1N [MA, methyl anthranilate]","effect on U-50,488-enhanced PCN production",[8],"inhibited the ability of U-50,488 to enhance PCN production"
"C[C@H]1CN(C[C@H](Cc2ccccc2)C(=O)NCC(=O)O)CCC1(C)c1cccc(O)c1 (single isomer, unassigned; (+)) [formula (II), (+)-Z-NHCH2 C(O)OH]",solubility in water,[9],low solubility in water except at low or high pH conditions
C[C@H](O)C(=O)O [L-lactate],PA-I promoter activity (fluorescence),[1],had no effect on PA-I promoter activity
C[C@@H](O)C(=O)O [D-lactate],PA-I promoter activity (fluorescence),[1],had no effect on PA-I promoter activity
Nc1ncnc2c1ncn2[C@@H]1O[C@H](COP(=O)(O)OP(=O)(O)OP(=O)(O)O)[C@@H](O)[C@H]1O [ATP],PA-I expression,[1],no evident inducing effect
IL-6: human cytokine,"PA-I expression, compound alone in media",[3],none of the other compounds alone had any effect
CC(C)(C)n1nc(-c2ccc(Cl)cc2)c2c(N)ncnc21 [PP2],effect on S1P-mediated endothelial cell barrier enhancement,[6]; Src family kinase inhibition,did not affect S1P-mediated endothelial cell barrier enhancement
same,effect on agonist-induced barrier disruption,[6]; Src family kinase inhibition,blocked agonist-induced barrier disruption
EGF: human cytokine tested for membrane binding,binding to P. aeruginosa membrane fractions,[2],No binding was observed
"CCCC(=O)N[C@H]1CCOC1=O [C4-HSL, C4-homoserine lactone]",PCN production in seven additional mvfR mutants,[8],none of these mutants produced PCN
same,PCN production in ΔGacA and ΔMvfR,[8],unable to restore PCN production
same,PCN production in ΔGacA/gacA,[8],"decreased, albeit minimally"
same,PCN production in ΔMvfR/mvfR,[8],further increased the already elevated PCN production
same,PCN production versus cell density,[8],shift in the production of PCN at lower cell densities
same,PCN response of MvfR mutant 121-332,[8],"did not respond to U-50,488 or C4-HSL"
same,"PCN response of MvfR mutants 1-292, 1-291, 1-283",[8],"did not respond to U-50,488 and C4-HSL"
same,PCN response of MvfR mutants 1-299 and 1-293,[8],"responded to U-50,488 and C4-HSL with enhanced PCN production"
same,dynamic tracking of PCN production in ΔMvfR/mvfR,[8],demonstrated a shift in PCN production at lower cell densities
same,dynamics of PCN production in ΔGacA/gacA,[8],had no effect on the dynamics of PCN production
same,PA-I expression,[3],induced PA-I expression
same,increase in PA-I expression,[3],~16 fold
same,effect on bacterial growth,[10],Neither compound had an effect on bacterial growth
"Oc1ccc2c3c1O[C@H]1c4[nH]c5c(c4C[C@@]4(O)[C@@H](C2)N(CC2CC2)CC[C@]314)C[C@@]1(O)[C@H]2Cc3ccc(O)c4c3[C@@]1(CCN2CC1CC1)[C@H]5O4 [NOR, nor-binaltorphimine]","effect on U-50,488-enhanced PCN production",[8],attenuates enhanced PCN production
same,"dose that completely inhibits U-50,488-enhanced PCN production",[8]; PAO1,200 µM
OC[C@H]1O[C@@H](n2cnc3c(O)ncnc32)[C@H](O)[C@@H]1O [inosine],"change in PA-I expression over time, magnitude versus adenosine",[1],effect of inosine greater
same,concentration inducing PA-I expression relative to adenosine,[1],10 fold less than adenosine
same,onset of PA-I expression versus adenosine,[1],at an earlier time point and at lower cell densities (OD) compared to adenosine
adenosine deaminase,PA-I expression after adenosine depletion of HIF-1-α-activated Caco-2 media,[1]; Caco-2,even greater increase in PA-I expression
IFN-γ: human recombinant interferon gamma,PA-I expression (fluorescence),[1],significant increase in PA-1 expression
same,pyocyanin production,[8],increased pyocyanin production
same,binding to purified OprF,[11],directly binds
same,binding to whole bacterial cells,[2]; PA27853,high binding affinity
same,ELISA binding to whole fixed cells,[2]; PAO1,avidly bound to whole fixed cells of P. aeruginosa in a dose-dependent manner
same,bacterial cells that bound IFN-γ (immunofluorescent imaging),[2]; PAO1,73%±3.2%
same,binding to P. aeruginosa membrane fractions,[2],preferentially bound to membrane fractions
same,PA-I expression,[3],induced PA-I expression
same,"PA-I expression, compound alone in media",[3],induced a direct effect on PA-I expression
same,PA-I mRNA and protein,[3],increased
same,"PA-I protein expression, dose dependence",[3],"dose dependent, with the greatest increase seen with 100 ng/ml"
same,lecA (PA-I) mRNA by Northern blot,[3],induced lecA mRNA
same,response to express PA-I,[3],induce a robust response
same,C4-HSL synthesis,[12]; 100 ng/ml IFN-γ,increased
same,rhlI gene transcription,[12]; Northern blot,induced rhl1 transcription
same,enhancement of barrier dysregulating effect of PA27853,[13],about 20%
IL-8: human cytokine,"PA-I expression, compound alone in media",[3],none of the other compounds alone had any effect
"C[C@@H](NC(=O)[C@@H](N)Cc1ccc(O)cc1)C(=O)NCC(=O)N(C)[C@@H](Cc1ccccc1)C(=O)NCCO [DAMGO, [D-Ala^2, N-MePhe^4, Gly^5-ol]]",effect of agonist alone on endothelial cell barrier function (TER),[6],induced endothelial cell barrier disruption in a dose-dependent manner
C=CCN1C[C@H](C)N([C@H](c2ccc(C(=O)N(CC)CC)cc2)c2cccc(O)c2)C[C@H]1C [BW373U86],PA-I expression judged by fluorescence of the GFP reporter strain,[1],greatest effect on PA-I expression
same,PA-I protein expression,[3],induced a response equal to C4-HSL
same,response to express PA-I,[3],induce a robust response
same,biofilm production,[14],~180 % of PA27853 induction
same,additional TEER decrease,[15],~25%
TNF-α,binding to P. aeruginosa membrane fractions,[2],No binding was observed
same,"PA-I expression, compound alone in media",[3],none of the other compounds alone had any effect
IL-4: human cytokine,binding to P. aeruginosa membrane fractions,[2],No binding was observed
Thrombin,effect of agonist alone on endothelial cell barrier function (TER),[6],induced a rapid transient decrease in endothelial cell barrier function
dynorphin,PCN production,[8],enhanced PCN production in a dose-dependent manner
